{"source": "patent US20250032411A1", "about": "“A SELF-EMULSIFYING DRUG DELIVERY SYSTEM (SEDDS) OF PUNICIC ACID COMBINED WITH NEUROPROTECTIVE NATURAL PRODUCTS TO DELAY ONSET, PREVENT, OR REVERSE NEURODEGENERATIVE DISEASE” (TAHIRO INC., priority 2021, published 2025)", "key": {"[1]": {"system": "C57BL6 mice", "test": "Y-maze Test of MK-801 induced cognitive decline", "format": "in vivo", "conditions": "N=12 per group, random = 33%", "description": "The effect of pomegranate-CBD based formulation with a 12:1 pomegranate to CBD ratio on cognitive decline was further evaluated in C57BL6 mice. The cognitive decline of the mice was achieved using MK-801 and the cognitive ability of the mice were tested using the Y-maze Test. The experiment included three groups of mice, neutral control (N=12), MK-801 (N=12), MK-801 Pomegranate-CBD treated (N=12)."}, "[2]": {"system": "Drosophila model of Parkinson's Disease", "conditions": "fly feeding, 75 mM in medium; cited from earlier work"}, "[3]": {"system": "mThyl-human alpha-synuclein transgenic mouse model", "conditions": "1 g/kg/day interperitoneally; cited from earlier work"}, "[4]": {"target": "alfa-synuclein (Homo sapiens, UniProt P37840)", "conditions": "in vitro; cited from earlier work"}, "[5]": {"system": "Parkinson's disease patients", "conditions": "18 g per day oral, cited from earlier work"}, "[6]": {"system": "old mice", "conditions": "chronic low dose, 3 mg per kg bodyweight per day; cited from earlier work"}}, "data": [{"smiles": "C[C@]12N[C@H](Cc3ccccc31)c1ccccc12", "note": "[MK-801]", "values": [{"measurement": "% of entries in the novel arm of the Y-maze", "setting": "[1]", "value": 31.8, "unit": "%"}]}, {"smiles": "OC[C@@H](O)[C@@H](O)[C@H](O)[C@H](O)CO", "note": "[Mannitol]", "values": [{"measurement": "alpha-synuclein aggregates in the brains", "setting": "[2]", "value": "reduced the amount of alpha-synuclein aggregates"}, {"measurement": "behavioral defects", "setting": "[2]", "value": "dramatically corrected behavioral defects"}, {"measurement": "alpha-synuclein accumulation in brain regions", "setting": "[3]", "value": "a decrease in alpha-synuclein accumulation was detected in several brain regions"}, {"measurement": "aggregation process of alfa-synuclein", "setting": "[4]", "value": "interfere with the aggregation process of alfa-synuclein"}, {"measurement": "patients who tolerate the maximal dose", "setting": "[5]; 36 weeks", "value": "only two thirds of patients tolerate this maximal dose"}, {"measurement": "safety of long-term use", "setting": "[5]", "value": "safe"}]}, {"smiles": "CCCCCc1cc(O)c2c(c1)OC(C)(C)[C@@H]1CCC(C)=C[C@@H]21", "note": "[THC, Δ9-tetrahydrocannabinol]", "values": [{"measurement": "cognitive function", "setting": "[6]", "value": "restores cognitive function in old mice"}]}]}
